Earlier results as cited in patent US20140235552A1 (priority 2013, published 2014).
No end group written: not given here.

How the values were obtained:
gastrin levels = conditions: 90 mg/day for 6 years or greater; cited from earlier work
beta cell mass = conditions: after infusion in rats; cited from earlier work
[1] = test system: human pancreatic ductal tissue; conditions: in vitro, without epidermal growth factor; cited from earlier work
[2] = test system: patients with type 2 diabetes; conditions: 12 weeks, cited from earlier work

Compound: Cc1c(OCC(F)(F)F)ccnc1C[S+]([O-])c1nc2ccccc2[nH]1 (stereo not shown) [Lansoprazole, 1H-Benzimidazole,2-[[[3-methyl-4-(2,2,2-trifluoroethoxy)-2-pyridinyl]methyl]sulfinyl]-2-[[[3-Methyl-4-(2,2,2-trifluoroethoxy)-2-pyridyl]-methyl]sulfinyl]benzimidazole]
- gastrin levels relative to normal (gastrin levels): ~7 fold
- safety profile (gastrin levels): sustained safety profile

Compound: gastrin: gastrointestinal hormone demonstrated to result in new beta cell formation (QGPWLEEEEEAYGWMDF; ends and bridges not checked; UniProt P01350 76-92, looked up)
- beta cell mass (beta cell mass): doubling
- beta cell neogenesis from human pancreatic ductal tissue [1]: induce beta cell neogenesis

Compound: COc1ccc2nc([S@@+]([O-])Cc3ncc(C)c(OC)c3C)[nH]c2c1 [esomeprazole]
- increase in area under the curve (AUC) of gastrin ([2]; 20 type 2 diabetes patients, 40 mg): 9 fold
- insulin secretion, glycaemic control or cardiovascular disease biomarkers ([2]; type 2 diabetes, authors' conclusion): did not improve
- change in insulin AUC ([2]; type 2 diabetes, inventor's reading of the published data): no decline
